The source of these data is patent US11065269B1, “Method of using astaxanthin for the treatment of diseases, and more particularly, the treatment of cancer” (priority 2018, dated 2021).

Each structure is given as a SMILES string.

The nature of data set [1]: increasing astaxanthin levels in the diet (experiments conducted with the invention). In kind it is in vivo. The method, then: In experiments conducted with the present invention, it is been shown that increasing astaxanthin levels in the diet can be used as a pre-cancer, cancer and anti-inflammatory prophylactic at levels up to 400 mg per day.
The conditions of data set [2]: relative to betacarotene; cited from earlier work.
The conditions of data set [3]: cited from earlier work.
For data set [4] the following is noted: oral; cited from earlier work.

Take `CC1=C(/C=C/C(C)=C/C=C/C(C)=C/C=C/C=C(C)/C=C/C=C(C)/C=C/C2=C(C)C(=O)[C@@H](O)CC2(C)C)C(C)(C)C[C@H](O)C1=O` [astaxanthin]: in data set [1] (dietary levels up to 400 mg per day), the side effects result is given as “No discernible side effects”. Also, in data set [1] (treatment of greater than 50 mg per day), the “side effects or skin color changes” value was “No side effects or skin color changes were observed”. For the same compound, the feces colour entry in data set [1] (up to 400 mg per day, from unabsorbed astaxanthin) is “some decolorization of feces”. In data set [1] (within four weeks of treatment of greater than 50 mg per day), the “anti-inflammatory effect and pain reduction associated with arthritis” value is “Anti-inflammatory and pain reduction associated with arthritis were noted”. Also, the “times more reactive as an antioxidant than betacarotene” value in data set [2] was 400 times. In addition, in data set [3] (relative to CoQ10), the “singlet oxygen quenching, times stronger than CoQ10” value is reported as 800 times. The “singlet oxygen quenching, times stronger than vitamin C” value in data set [3] (relative to vitamin C) is recorded as 6000 times. Also, in data set [3] (relative to vitamin E), the “singlet oxygen quenching, times stronger than vitamin E” value is given as 550 times. Besides, in data set [4], the toxic side effects entry was “No toxic side effects have been observed”.
